Legend:
[1] = system: mite-induced airway hyperresponsiveness; experiment: Mite-induced airway hyperresponsiveness, pause enhancement (Penh) by whole-body plethysmography; format: in vivo, BALB/c mouse
Source text: FIG. 4 illustrates experimental design. All groups except control group were immunized with mite crude extract allergen on days 1 and 8, then mite crude extract allergen intratracheally on day 15 in all mite treated group, BALB/c mouse were divided into six groups (1) control group (PBS), (2) mites delivered intratracheally (mIT, mite on day 15) alone, (3) CMP intranasal (eIN, CMP on days 1 to 22) alone, (4) preventive-treatment group (eIN+mIT, CMP on days 1 to 14, mite on day 15) (5) therapy-treatment group (mIT+eIN, mite on day 15, CMP on days 15 to 22), and (6) preventive- and therapeutic-treatment group (eIN+mIT+eIN, CMP on days 1 to 22, mite on day 15).
FIG. 5 illustrates inhibitory effect of CMP on mite-induced airway hyperresponsiveness. The effect of methacholine (MCh) on pause enhancement (Penh) in mouse exposed to CMP in the presence and absence of mite proteins. Penh was measured in all six treatment groups after stimulation with 6.25, 12.5, or 25 mg/ml MCh for 1 min. The values were presented as a ratio with respect to the baseline Penh (before MCh stimulation) for each group. Each result was expressed as the mean±S.D., n=4. **, P<0.01. ***, P<0.001. […]
Airway responsiveness was measured in mouse on day 22 (i.e., 1 hour after the last challenge) in conscious, spontaneously breathing mouse using a whole-body plethysmography system (Buxco, Wilmington, N.C., USA) as described before (Maeda T, et al, Eur J Biochem 2002, 269, 307-316). […] The chamber-pressure-time wave was continuously measured via a transducer connected to a computer data acquisition system. After a baseline Penh reading for >3 min, mice were serially exposed to increasing concentrations of nebulized methacholine (MCh) (0, 6.25, 12.5, and 25 mg/ml; Sigma, St Louis, Mo., USA) in PBS for 1 min by inhalation. Penh values, which are measured as changes in enhanced pause, tidal volume, and breathing frequency (breaths/minute) for the first 3 min after the end of MCh nebulization, were averaged and used to compare responses among all six-treatment groups. […]

human lung cancer A549 = experiment: Transwell migration assay, A549; format: cell-based; conditions: 5 μM CMP pretreatment 30 min, 18 hours
Procedure: FIG. 10 illustrates Tumor migration inhibition by CMP. A549, H460 and mouse colon cancer cells were incubated with CMP at 37° C. for 30 min before adding to the top chamber of transwell membranes in 24-well dishes at a density of 2×10^4 cells/well. Data represented the mean±S.E. of triplicate samples from a representative experiment. The experiment was repeated at least three times with similar results
Cancer cell inhibition by CMP was performed in a 24-well Transwell chamber consisting of a cell culture insert (6.4 mm diameter, 8-1 μm pore polyethylene tetraphtalate membrane, [Becton Dickinson]) set in each well of a 24-well companion plate (Becton Dickinson). Briefly, 3×10^4 cancer cells were suspended and pretreated with 5 and 12.5 μM CMP for 30 min in a total volume of 200 μL. Cell suspensions were inoculated into the upper chamber of an insert, 5% fetal bovine serum (FBS) in medium as a chemoattractant was added to the plate well in the bottom chamber, and incubated for 18 hours in a humidified incubator at 37° C. with 5% CO2. The non-migratory cells on the upper membrane surface were removed with a cotton swab, and the migratory cells attached to the lower membrane surface were fixed with 4% paraformaldehyde and stained with 0.2% crystal violet. The number of migrated cells was counted in four randomly selected high power fields under microscope. […]

NYRWRCKNQN (CMP)
AHR, response to increasing dose of inhaled methacholine ([1]; CMP intranasal, eIN+mIT, mIT+eIN and eIN+mIT+eIN groups): significantly decrease
Penh stimulation compared with mite group ([1]; eIN+mIT and mIT+eIN groups, 25 mg/ml MCh): lower stimulation
Penh/baseline ratio change of mIT group compared with CMP group ([1]; mIT vs eIN+mIT+eIN group, 12.5 and 25 mg/ml MCh): much higher
decrease of migration activity (human lung cancer A549): 60%

Source: patent US9315544B2, “Method of treating eosinophilia by administering an immunomodulating peptide” (National Tsing Hua University, priority 2012, dated 2016)
